# Literature values, collected in patent US20130142872A1, “EMP2: Ethyl-Methyl, di Methyl, tri Methyl Pyruvate Acid Esters: A Tool for Regulating HbA1c and a Riboswitch Activator” (priority 2011, published 2013).
# Tests used:
# [1] = clinically prescribed / clinically relevant doses
# [2] = after coronary ischemia and reperfusion
# [3] = wide variety of preclinical models of critical illnesses
# B-islet pancreatic cell = settings: as compared to its glucose control
# [4] = system: primary astrocyte cultures; settings: 10 mM extracellular NAD(+) after MNNG exposure
# [5] = system: Cultured mouse astrocytes; settings: for cell death / translocation of the apoptosis-inducing factor from mitochondria to nuclei: after PARP-1 activation
# THP-1 monocytic cells = settings: PMA-stimulated THP-1 cells
# [6] = system: Mouse neuron and astrocyte cultures; settings: for NAD(+) depletion: PARP1 activation by MNNG or H(2)O(2); for poly(ADP-ribose) accumulation: during MNNG exposure, immunostaining; for cell death: hydrogen peroxide, NMDA or MNNG exposure
molecule,measurement,setting,value
"CCOC(=O)C(C)=O [Ethyl pyruvate, ethyl pyruvate]",safety in human volunteers,[1],safe
same,cardiac function,[2],improve cardiac function
same,survival and organ dysfunction,[3],improve survival and ameliorate organ dysfunction
COC(=O)C(C)=O [Methyl pyruvate],safety in human volunteers,[1],safe
same,increase in insulin production,B-islet pancreatic cell,six-fold
NC(=O)c1ccc[n+]([C@@H]2O[C@H](COP(=O)([O-])OP(=O)(O)OC[C@H]3O[C@@H](n4cnc5c(N)ncnc54)[C@H](O)[C@@H]3O)[C@@H](O)[C@H]2O)c1 [NAD(+)],cell death,[4],prevented
same,glycolytic capacity,[4],completely restored
same,mitochondrial membrane potential,[5]; NAD(+) restored to near-normal levels after PARP-1 activation,enabled the recovery
same,cell death,[5],blocked
same,translocation of the apoptosis-inducing factor from mitochondria to nuclei,[5],blocked
"CCCCC/C=C/C=C1/C(=O)C=CC1C/C=C\CCCC(=O)O (stereo not drawn) [PGJ2, 15-deoxy-Delta(12, 14)-PGJ2]","IL-1, IL-6 and TNFalpha (pro-inflammatory cytokine) secretion",THP-1 monocytic cells,inhibitory effect
same,IL-1Ra production,THP-1 monocytic cells,increasing
NC(=O)c1ccccc1 [benzamide],NAD(+) depletion,[6],prevented
same,poly(ADP-ribose) accumulation,[6],decrease
same,cell death,[6],markedly reduced
O=C(OC[C@H]1O[C@@H](OC(=O)c2cc(O)c(O)c(OC(=O)c3cc(O)c(O)c(O)c3)c2)[C@H](OC(=O)c2cc(O)c(O)c(OC(=O)c3cc(O)c(O)c(O)c3)c2)[C@@H](OC(=O)c2cc(O)c(O)c(OC(=O)c3cc(O)c(O)c(O)c3)c2)[C@@H]1OC(=O)c1cc(O)c(O)c(OC(=O)c2cc(O)c(O)c(O)c2)c1)c1cc(O)c(O)c(OC(=O)c2cc(O)c(O)c(O)c2)c1 [gallotannin],NAD(+) depletion,[6],prevented
same,poly(ADP-ribose) accumulation,[6],increase
same,cell death,[6],equally reduced
cyclosporin A,cell death,[5],blocked
same,translocation of the apoptosis-inducing factor from mitochondria to nuclei,[5],blocked
nobotanin B,cell death,[6],equally reduced
